Patent US20180311268A1, “RESPONSE-GUIDED HCV THERAPY” (EMORY UNIVERSITY, priority 2015, published 2018)
Several values for one entry are separate records, joined by “and”; a condition that tells them apart may be missing. Equal values may be shown once.

Experiments:
HCV genotype 1 = conditions: added to sofosbuvir and ledipasvir, 6 week triple-drug regimens; cited from earlier work
[1] = Plasma concentrations of anti-HCV drugs by LC-MS/MS; type: in vivo, human
Procedure: Plasma samples from patients infected with HCV were stored in aliquots at −80° C. until further processing. Viral RNA was extracted and the genome sequenced using an Applied Biosystems 3730×1 DNA analyser as previously described.^21 Data were analysed with the ABL-DeepChek-HCV 1.4 software (ABL SA, Luxembourg, Luxembourg). To confirm compliance, a liquid chromatography-tandem mass spectrometry (LC-MS/MS) method was developed to detect and quantify the anti-HCV drug concentrations in plasma collected from each patient. Briefly, blood samples were collected from 25 patients at 8 h, 24 h, and 48 h after initiating treatment. 50 μL of plasma was extracted with 3 mL of ethyl acetate containing abacavir (as an internal standard). The supernatant was collected, air dried, then reconstituted in 2 mmol/L ammonium acetate solution with 75% methanol. Five target compounds were simultaneously monitored and quantified by LC-MS/MS in the multiple reaction monitoring mode, including sofosbuvir (m/z 530.2/243.2), daclatasvir (m/z 739.5/339.3), ledipasvir (m/z 889.4/637.3), asunaprevir (m/z 748.4/648.4), and simeprevir (m/z 750.4/315.2). A Dionex Ultimate 3000 HPLC system (Thermo Scientific, Waltham, Mass., USA) coupled with an AB SCIEX API5000 triple quadrupole mass spectrometer (AB SCIEX, Framingham, Mass., USA) was used for analysis.
Fifty μL plasma was extracted with 3 mL of ethyl acetate containing abacavir (as internal standard). The supernatant was collected, air-dried then reconstituted in 2 mM ammonium acetate solution with 75% methanol. Five target compounds were simultaneously monitored and quantified by LC-MS/MS in the multiple reaction monitoring (MRM) mode, including sofosbuvir (m/z 530.2à243.2), daclatasvir (m/z 739.5à339.3), ledipasvir (m/z 889.4à637.3), asunaprevir (m/z 748.4à648.4) and simeprevir (m/z 750.4à315.2). SOF concentrations were measured with a wide range from BLOQ to 3,174 ng/mL; LDV and DCV were in the range of BLOQ to 469 ng/mL and 101 to 3045 ng/mL; ASV and SMV were in the range of BLOQ to 626 ng/mL and 30.6 to 693 ng/mL, respectively.

For `CC[C@@H]1C[C@]1(NC(=O)[C@@H]1C[C@@H](Oc2cc(-c3csc(NC(C)C)n3)nc3c(Cl)c(OCCN4CCOCC4)ccc23)CN1C(=O)[C@@H](NC(=O)O[C@@H]1C[C@@H]2C[C@@H]2C1)C(C)(C)C)C(=O)O` [GS-9451], the “Patients with SVR12” value (HCV genotype 1) is given as 95%.
In the case of `CC1=CC[C@H](C(=O)N(c2cc(C#CC(C)(C)C)sc2C(=O)O)[C@H]2CC[C@](O)(CO[C@H]3CCOC3)CC2)CC1` [GS-9669], the “Patients with SVR12” value (HCV genotype 1) is listed as 95%.
For `CC(C)OC(=O)[C@H](C)N[P@](=O)(OC[C@H]1O[C@@H](n2ccc(=O)[nH]c2=O)[C@](C)(F)[C@@H]1O)Oc1ccccc1` [SOF, Sofosbuvir], the “Range of measured plasma concentrations” value ([1]; all subjects, 8, 24 and 48 hr after first treatment, BLOQ = below LOQ) was ≤ 3,174 ng/mL, the concentration at 8 h ([1]; human, in vivo, individual subjects on SOF + DCV + ASV Then SOF + LDV, >3 weeks treatment, 8 h) was 9.99 ng/mL and the concentration at 24 h ([1]; human, in vivo, individual subjects on SOF + DCV + ASV Then SOF + LDV, >3 weeks treatment, 24 h) was 11.2 ng/mL. For the same compound, the concentration at 48 h ([1]; human, in vivo, individual subjects on SOF + DCV + ASV Then SOF + LDV, >3 weeks treatment, 48 h) was 631 ng/mL, the concentration at 24 h ([1]; human, in vivo, individual subjects on SOF + DCV + SMV, 3 weeks treatment, 24 h) was 2410 ng/mL and the concentration at 8 h ([1]; human, in vivo, individual subjects on SOF + LDV + ASV Then SOF + LDV, >3 weeks treatment, 8 h) was 0.67 ng/mL. For the same compound, the Plasma concentration ([1]; individual subjects on SOF + DCV + ASV, 3 weeks treatment, 8 h) was 0.55 ng/mL and 0.28 ng/mL and 2.03 ng/mL and 13.5 ng/mL and 0.47 ng/mL, the Plasma concentration ([1]; individual subjects on SOF + DCV + ASV, 3 weeks treatment, 24 h) was 1.09 ng/mL and 0.28 ng/mL and 0.27 ng/mL and 192 ng/mL and 256 ng/mL and the Plasma concentration ([1]; individual subjects on SOF + DCV + ASV, 3 weeks treatment, 48 h) was 1.41 ng/mL and 0.80 ng/mL and 7.55 ng/mL and 292 ng/mL and 12.7 ng/mL and 1807 ng/mL. For the same compound, the Plasma concentration ([1]; individual subjects on SOF + DCV + SMV, 3 weeks treatment, 8 h) was 2.35 ng/mL and 0.26 ng/mL and 14.7 ng/mL and 0.42 ng/mL and 1.45 ng/mL, the Plasma concentration ([1]; individual subjects on SOF + DCV + SMV, 3 weeks treatment, 24 h) was 2114 ng/mL and 1923 ng/mL and the Plasma concentration ([1]; individual subjects on SOF + DCV + SMV, 3 weeks treatment, 48 h) was 3174 ng/mL and 1796 ng/mL and 1549 ng/mL and 1227 ng/mL. For the same compound, the Plasma concentration ([1]; individual subjects on SOF + LDV + ASV Then SOF + LDV, >3 weeks treatment, 8 h) was 0.58 ng/mL, the Plasma concentration ([1]; individual subjects on SOF + LDV + ASV Then SOF + LDV, >3 weeks treatment, 24 h) was 202 ng/mL and 1591 ng/mL and 0.61 ng/mL and the Plasma concentration ([1]; individual subjects on SOF + LDV + ASV, 3 weeks treatment, 8 h after initiating treatment) was 7.17 ng/mL and 5.52 ng/mL and 4.22 ng/mL and 18.2 ng/mL and 4.54 ng/mL and 10.4 ng/mL. For the same compound, the Plasma concentration ([1]; individual subjects on SOF + LDV + ASV, 3 weeks treatment, 24 h) was 0.94 ng/mL and 8.92 ng/mL and 1.23 ng/mL and 2.13 ng/mL and 1.17 ng/mL and 0.99 ng/mL and the Plasma concentration ([1]; individual subjects on SOF + LDV + ASV, 3 weeks treatment, 48 h) was 4.76 ng/mL and 6.35 ng/mL and 0.64 ng/mL and 1.59 ng/mL and 0.92 ng/mL and 0.81 ng/mL.
